Drawing on patent US20260217687A1 (NeoPhore Limited, priority 2023, published 2026), this text covers IC50 for 30 compounds.

The assay concerns the target T1, recombinant N-terminal MLH1 (residues 15-340) (Homo sapiens, UniProt P40692).
T1 construct: recombinant N-terminal MLH1 (residues 15-340)
T1 sequence (P40692 15-340): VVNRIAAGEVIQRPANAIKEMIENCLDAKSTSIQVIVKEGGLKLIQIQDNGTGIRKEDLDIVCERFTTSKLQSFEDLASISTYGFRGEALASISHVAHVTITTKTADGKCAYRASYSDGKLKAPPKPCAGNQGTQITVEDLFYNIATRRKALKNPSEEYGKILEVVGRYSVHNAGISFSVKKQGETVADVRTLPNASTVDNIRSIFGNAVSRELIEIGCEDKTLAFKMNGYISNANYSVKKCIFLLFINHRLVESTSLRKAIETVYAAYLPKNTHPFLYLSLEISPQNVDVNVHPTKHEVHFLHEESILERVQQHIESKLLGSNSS
Put plainly: Fluorescence Polarisation Assay for MLH1. It is filed as binding. To be noted: 100 nM N-terminal MLH1, 5 nM probe compound. An outline of the steps:
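Fluorescence polarisation displacement: 100 nM MLH1 (15-340) preincubated 30 min at room temperature with compound, then 5 nM rhodamine-labelled probe added and read immediately. Buffer 25 mM HEPES pH 7.5, 250 mM NaCl, 10 mM MgCl2, 0.01% Triton X-100, 5 mM DTT; normalised to no-inhibitor and no-enzyme controls.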

pIC50: −log10 of the molar value.

For the compound `CN1CC[C@@H](Oc2ccc3c(c2)CN(C(=O)c2c(O)cc(C(F)F)cc2OCc2ccccc2)CC3)C1` [Example 4.67, (R)-(2-(Benzyloxy)-4-(difluoromethyl)-6-hydroxyphenyl)(7-((1-methylpyrrolidin-3-yl)oxy)-3,4-dihydroisoquinolin-2(1H)-yl)methanone], the pIC50 is 6.00 to 7.00.

As to `CN1CC[C@H](Oc2ccc3c(c2)CN(C(=O)c2c(O)cc(C(F)F)cc2OCc2ccccc2)CC3)C1` [Example 4.68, (S)-(2-(Benzyloxy)-4-(difluoromethyl)-6-hydroxyphenyl)(7-((1-methylpyrrolidin-3-yl)oxy)-3,4-dihydroisoquinolin-2(1H)-yl)methanone], the pIC50 is 6.00 to 7.00.

With `CN1CC(Oc2ccc3c(c2)CN(C(=O)c2c(O)cc(C(F)F)cc2OCc2ccccc2)CC3)C1` [Example 4.69, (2-(Benzyloxy)-4-(difluoromethyl)-6-hydroxyphenyl)(7-((1-methylazetidin-3-yl)oxy)-3,4-dihydroisoquinolin-2(1H)-yl)methanone], the pIC50 was 6.00 to 7.00.

For `O=C(c1c(O)cc(C(F)F)cc1OCc1ccccc1)N1Cc2ccc(OCCN3CCOCC3)cc2C1` [Example 4.70, (2-(Benzyloxy)-4-(difluoromethyl)-6-hydroxyphenyl) (5-(2-morpholinoethoxy)isoindolin-2-yl) methanone], the pIC50 is 6.00 to 7.00.

As for `CN1CCN(CCOc2ccc3c(c2)CN(C(=O)c2c(O)cc(C(F)F)cc2OCc2ccccc2)C3)CC1` [Example 4.71, (2-(Benzyloxy)-4-(difluoromethyl)-6-hydroxyphenyl) (5-(2-(4-methylpiperazin-1-yl)ethoxy)isoindolin-2-yl) methanone], the pIC50 was 6.00 to 7.00.

Take `CN(C)CCOc1cc2c(c(NC3CCCC3)c1)CN(C(=O)c1c(O)cc(C(F)F)cc1OCc1ccccc1)CC2` [Example 4.72, (2-(Benzyloxy)-4-(difluoromethyl)-6-hydroxyphenyl)(8-(cyclopentylamino)-6-(2-(dimethylamino)ethoxy)-3,4-dihydroisoquinolin-2(1H)-yl)methanone]: the negative logarithm of the IC50 (pIC50) is over 7.00.

Take `CNc1cc(OCCN(C)C)cc2c1CN(C(=O)c1c(O)cc(C(F)F)cc1OCc1ccccc1)CC2` [Example 4.73, (2-(Benzyloxy)-4-(difluoromethyl)-6-hydroxyphenyl)(6-(2-(dimethylamino)ethoxy)-8-(methylamino)-3,4-dihydroisoquinolin-2(1H)-yl)methanone]: the negative logarithm of the IC50 (pIC50) was 6.00 to 7.00.

As for `CN(C)CCOc1cc2c(c(C(F)F)c1)CN(C(=O)c1c(O)cc(C(F)F)cc1OCc1ccccc1)CC2` [Example 4.74, (2-(Benzyloxy)-4-(difluoromethyl)-6-hydroxyphenyl)(8-(difluoromethyl)-6-(2-(dimethylamino)ethoxy)-3,4-dihydroisoquinolin-2(1H)-yl)methanone], the negative-log IC50 (pIC50) is 6.00 to 7.00.

Take `CN(C)CCOc1cc2c(c(N[C@@H]3CCOC3)c1)CN(C(=O)c1c(O)cc(C(F)F)cc1OCc1ccccc1)C2` [Example 4.75, (R)-(2-(Benzyloxy)-4-(difluoromethyl)-6-hydroxyphenyl) (6-(2-(dimethylamino)ethoxy)-4-((tetrahydrofuran-3-yl)amino)isoindolin-2-yl)methanone]: the pIC50 is over 7.00.

On to `CN(C)CCOc1cc2c(c(N[C@H]3CCOC3)c1)CN(C(=O)c1c(O)cc(C(F)F)cc1OCc1ccccc1)C2` [Example 4.76], for which the pIC50 was over 7.00.

Consider `COCCOc1ccc2c(c1)CN(C(=O)c1c(O)cc(C(F)F)cc1OCc1ccccc1)C2` [Example 4.77, (2-(Benzyloxy)-4-(difluoromethyl)-6-hydroxyphenyl)(5-(2-methoxyethoxy)isoindolin-2-yl)methanone], for which the negative-log IC50 (pIC50) is 6.00 to 7.00.

`O=C(c1c(O)cc(C(F)F)cc1OCc1ccccc1)N1Cc2ccc(OC3CCOCC3)cc2C1` [Example 4.78, (2-(Benzyloxy)-4-(difluoromethyl)-6-hydroxyphenyl) (5-((tetrahydro-2H-pyran-4-yl)oxy)isoindolin-2-yl)methanone]: the negative logarithm of the IC50 (pIC50) is 6.00 to 7.00.

As for `O=C(c1c(O)cc(C(F)F)cc1OCc1ccccc1)N1Cc2cccc(OC3CCOC3)c2C1` (stereo not drawn) [Example 4.79, (2-(Benzyloxy)-4-(difluoromethyl)-6-hydroxyphenyl)(4-((tetrahydrofuran-3-yl)oxy)isoindolin-2-yl)methanone], the negative-log IC50 (pIC50) was 5.00 to 6.00.

Turning to `O=C(c1c(O)cc(C(F)F)cc1OCc1ccccc1)N1CCc2cccc(OC3CCOC3)c2C1` (stereo not drawn) [Example 4.80], the pIC50 was 5.00 to 6.00.

Turning to `O=C(c1c(O)cc(F)cc1OCc1ccccc1)N1Cc2cccc(N[C@H]3CCOC3)c2C1` [Example 5, (S)-(2-(Benzyloxy)-4-fluoro-6-hydroxyphenyl)(4-((tetrahydrofuran-3-yl)amino)isoindolin-2-yl)methanone], the pIC50 was 6.00 to 7.00.

As to `O=C(c1c(O)cc(F)cc1OCc1ccccc1)N1Cc2cccc(N[C@@H]3CCOC3)c2C1` [Example 6, (R)-(2-(Benzyloxy)-4-fluoro-6-hydroxyphenyl)(4-((tetrahydrofuran-3-yl)amino)isoindolin-2-yl)methanone], the pIC50 is 5.00 to 6.00.

Take `O=C(c1c(O)cc(Cl)cc1OCc1ccccc1)N1Cc2cccc(N[C@@H]3CCOC3)c2C1` [Example 7, (R)-(2-(Benzyloxy)-4-chloro-6-hydroxyphenyl)(4-((tetrahydrofuran-3-yl)amino)isoindolin-2-yl)methanone]: the negative logarithm of the IC50 (pIC50) is 5.00 to 6.00.

Consider `O=C(c1c(O)cc(Cl)cc1OCc1ccccc1)N1Cc2cccc(N[C@H]3CCOC3)c2C1` [Example 8, (S)-(2-(Benzyloxy)-4-chloro-6-hydroxyphenyl)(4-((tetrahydrofuran-3-yl)amino)isoindolin-2-yl)methanone], for which the negative-log IC50 (pIC50) was 6.00 to 7.00.

Consider `CN(C)CCOc1cc2c(c(N[C@@H]3CCOC3)c1)CN(C(=O)c1c(O)cc(Cl)cc1OCc1ccccc1)C2` [Example 9, (R)-(2-(Benzyloxy)-4-chloro-6-hydroxyphenyl)(6-(2-(dimethylamino)ethoxy)-4-((tetrahydrofuran-3-yl)amino)isoindolin-2-yl)methanone], for which the pIC50 was 6.00 to 7.00.

Take `CN(C)CCOc1cc2c(c(N[C@H]3CCOC3)c1)CN(C(=O)c1c(O)cc(Cl)cc1OCc1ccccc1)C2` [Example 10, (S)-(2-(Benzyloxy)-4-chloro-6-hydroxyphenyl)(6-(2-(dimethylamino)ethoxy)-4-((tetrahydrofuran-3-yl)amino)isoindolin-2-yl)methanone]: the pIC50 was over 7.00.

Turning to `COc1cc2c(c(N[C@@H]3CCOC3)c1)CN(C(=O)c1c(O)cc(Cl)cc1OCc1ccccc1)C2` [Example 10.1, (R)-(2-(Benzyloxy)-4-chloro-6-hydroxyphenyl)(6-methoxy-4-((tetrahydrofuran-3-yl)amino)isoindolin-2-yl)methanone], the pIC50 was 5.00 to 6.00.

As for `COc1cc2c(c(N[C@H]3CCOC3)c1)CN(C(=O)c1c(O)cc(Cl)cc1OCc1ccccc1)C2` [Example 10.2, (S)-(2-(Benzyloxy)-4-chloro-6-hydroxyphenyl)(6-methoxy-4-((tetrahydrofuran-3-yl)amino)isoindolin-2-yl)methanone], the pIC50 was 6.00 to 7.00.

For the compound `CN1CC(Nc2cccc3c2CN(C(=O)c2c(O)cc(C#N)cc2OCc2ccccc2)C3)CC1=O` (stereo not drawn) [Example 10.3, 3-(Benzyloxy)-5-hydroxy-4-(4-((1-methyl-5-oxopyrrolidin-3-yl)amino)isoindoline-2-carbonyl)benzonitrile], the negative-log IC50 (pIC50) was 6.00 to 7.00.

With `N#Cc1cc(O)c(C(=O)N2Cc3cccc(Nc4cncnc4)c3C2)c(OCc2ccccc2)c1` [Example 10.4, 3-(Benzyloxy)-5-hydroxy-4-(4-(pyrimidin-5-ylamino)isoindoline-2-carbonyl)benzonitrile], the pIC50 is 5.00 to 6.00.

On to `CC(=O)N1CC[C@@H](Nc2cccc3c2CN(C(=O)c2c(O)cc(C#N)cc2OCc2ccccc2)C3)C1` [Example 10.5, (R)-4-(4-((1-Acetylpyrrolidin-3-yl)amino)isoindoline-2-carbonyl)-3-(benzyloxy)-5-hydroxybenzonitrile], for which the negative-log IC50 (pIC50) was 6.00 to 7.00.

Consider `CC(=O)N1CC[C@H](Nc2cccc3c2CN(C(=O)c2c(O)cc(C#N)cc2OCc2ccccc2)C3)C1` [Example 10.6, (S)-4-(4-((1-Acetylpyrrolidin-3-yl)amino)isoindoline-2-carbonyl)-3-(benzyloxy)-5-hydroxybenzonitrile], for which the pIC50 was 6.00 to 7.00.

For `N#Cc1cc(O)c(C(=O)N2Cc3cccc(NCc4cocn4)c3C2)c(OCc2ccccc2)c1` [Example 10.9, 3-(Benzyloxy)-5-hydroxy-4-(4-((oxazol-4-ylmethyl)amino)isoindoline-2-carbonyl)benzonitrile], the pIC50 was 6.00 to 7.00.

As for `N#Cc1cc(O)c(C(=O)N2Cc3cccc(NCC4CCOC4)c3C2)c(OCc2ccccc2)c1` (stereo not drawn) [Example 10.10, 3-(Benzyloxy)-5-hydroxy-4-(4-(((tetrahydrofuran-3-yl)methyl)amino)isoindoline-2-carbonyl)benzonitrile], the negative logarithm of the IC50 (pIC50) was 5.00 to 6.00.

Turning to `COc1cccc2c1CN(C(=O)c1c(O)cc(C#N)cc1OCc1ccccc1)C2` [Example 10.11, 3-(Benzyloxy)-5-hydroxy-4-(4-methoxyisoindoline-2-carbonyl)benzonitrile], the negative-log IC50 (pIC50) is 5.00 to 6.00.

Regarding `N#Cc1cc(O)c(C(=O)N2CCc3cccc(N[C@@H]4CCOC4)c3C2)c(OCc2ccccc2)c1` [Example 10.12, (R)-3-(Benzyloxy)-5-hydroxy-4-(8-((tetrahydrofuran-3-yl)amino)-1,2,3,4-tetrahydroisoquinoline-2-carbonyl)benzonitrile], the pIC50 was 5.00 to 6.00.
